Measurements published in ChEMBL document CHEMBL1201862, “PubChem BioAssay data set” (2004).
Where “and” joins values, the source holds several entries; their conditions need not be identical. Equal entries are not always repeated.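 Results reflect a 48-hour exposure of cells in 96-well plates to compound at five concentrations. GI50: concentration for 50% inhibition of growth.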 Calls of active or inactive are those of the source. Cut-off read from the data, not from the text of the source: active = GI50 up to about 1.1 µM and inactive = higher.

Legend:
Test in all cases: growth of human tumour cells (NCI), 48 h
786-0 = system: 786-0
A498 = system: A498
A549 = system: A549
ACHN = system: ACHN
BT-549 = system: BT-549
CAKI-1 = system: CAKI-1
CCRF-CEM = system: CCRF-CEM
COLO 205 = system: COLO 205
DU-145 = system: DU-145
HCC 2998 = system: HCC 2998
HCT-116 = system: HCT-116
HCT-15 = system: HCT-15
HOP-62 = system: HOP-62
HOP-92 = system: HOP-92
HT-29 = system: HT-29
Hs-578T = system: Hs-578T
IGROV-1 = system: IGROV-1
K562 = system: K562
KM12 = system: KM12
LOX IMVI = system: LOX IMVI
M14 = system: M14
MDA-MB-231 = system: MDA-MB-231
MDA-MB-435 = system: MDA-MB-435
MDA-N = system: MDA-N
MOLT-4 = system: MOLT-4
Malme-3M = system: Malme-3M
NCI-H226 = system: NCI-H226
NCI-H23 = system: NCI-H23
NCI-H460 = system: NCI-H460
NCI-H522 = system: NCI-H522
NCI/ADR-RES = system: NCI/ADR-RES
OVCAR-3 = system: OVCAR-3
OVCAR-4 = system: OVCAR-4
OVCAR-5 = system: OVCAR-5
OVCAR-8 = system: OVCAR-8
PC-3 = system: PC-3
RPMI-8226 = system: RPMI-8226
RXF 393 = system: RXF 393
SF-268 = system: SF-268
SF-295 = system: SF-295
SK-MEL-28 = system: SK-MEL-28
SK-MEL-2 = system: SK-MEL-2
SK-MEL-5 = system: SK-MEL-5
SK-OV-3 = system: SK-OV-3
SN12C = system: SN12C
SNB-19 = system: SNB-19
SNB-75 = system: SNB-75
SR = system: SR
SW-620 = system: SW-620
T47D = system: T47D
TK-10 = system: TK-10
U-251 = system: U-251
UACC-257 = system: UACC-257
UACC-62 = system: UACC-62
UO-31 = system: UO-31
EKVX = system: EKVX
MCF7 = system: MCF7
SF-539 = system: SF-539
HL-60 = system: HL-60

Measured: GI50

Cc1cc2c(c(=O)n1C)SCC2
> 100 µM: HCT-15
inactive: 786-0 > 100 µM | A498 > 100 µM | A549 > 100 µM | ACHN > 100 µM | BT-549 > 100 µM | CAKI-1 > 100 µM | CCRF-CEM > 100 µM | COLO 205 > 100 µM | DU-145 > 100 µM | HCC 2998 > 100 µM | HCT-116 > 100 µM | HOP-62 > 100 µM | HOP-92 > 100 µM | HT-29 > 100 µM | Hs-578T > 100 µM | IGROV-1 > 100 µM | K562 > 100 µM | KM12 > 100 µM | LOX IMVI > 100 µM | M14 > 100 µM | MDA-MB-231 > 100 µM | MDA-MB-435 > 100 µM | MDA-N > 100 µM | MOLT-4 > 100 µM | Malme-3M > 100 µM | NCI-H226 > 100 µM | NCI-H23 > 100 µM | NCI-H460 > 100 µM | NCI-H522 > 100 µM | NCI/ADR-RES > 100 µM | OVCAR-3 > 100 µM | OVCAR-4 > 100 µM | OVCAR-5 > 100 µM | OVCAR-8 > 100 µM | PC-3 > 100 µM | RPMI-8226 > 100 µM | RXF 393 > 100 µM | SF-268 > 100 µM | SF-295 > 100 µM | SK-MEL-28 > 100 µM | SK-MEL-2 > 100 µM | SK-MEL-5 > 100 µM | SK-OV-3 > 100 µM | SN12C > 100 µM | SNB-19 > 100 µM | SNB-75 > 100 µM | SR > 100 µM | SW-620 > 100 µM | T47D > 100 µM | TK-10 > 100 µM | U-251 > 100 µM | UACC-257 > 100 µM | UACC-62 > 100 µM | UO-31 > 100 µM

C=CCN1C(=O)/C(=C/c2ccc(Cl)cc2)N=C1SC1OC(COC(C)=O)C(OC(C)=O)C(OC(C)=O)C1OC(C)=O (stereo not given)
inactive: 786-0 3.5 µM | A549 14.4 µM | BT-549 31.3 µM and 15.7 µM | CAKI-1 10.9 µM and 9.93 µM | CCRF-CEM 37.2 µM | DU-145 24 µM and 14.6 µM | EKVX 24.3 µM and 33.4 µM | HCT-116 5.02 µM | HT-29 35.6 µM | Hs-578T 2.54 µM | IGROV-1 22.4 µM and 33 µM | KM12 30.2 µM and 22.8 µM | LOX IMVI 22.9 µM and 29.9 µM | M14 28.1 µM | MCF7 12.7 µM and 7.41 µM | MDA-MB-435 14 µM and 13.8 µM | MDA-N 25.8 µM | NCI-H23 20 µM and 25.1 µM | NCI-H522 2.98 µM and 3.81 µM | OVCAR-3 11.6 µM and 18.5 µM | OVCAR-8 15.7 µM and 8.43 µM | SF-268 1.64 µM | SF-539 33 µM and 25.3 µM | SK-MEL-28 39.4 µM and 56.9 µM | SK-MEL-5 26.6 µM and 15.8 µM | SK-OV-3 > 39.8 µM and 27.1 µM | SN12C 16.5 µM | SNB-19 15.8 µM | T47D 8.51 µM | TK-10 46.2 µM and > 42.6 µM | UACC-257 18.9 µM and 12.2 µM

Cc1nnc(N/N=C2/C(=O)Nc3ccccc32)nc1O
inactive: 786-0 > 100 µM | A498 > 100 µM | A549 > 100 µM | ACHN > 100 µM | BT-549 > 100 µM | DU-145 > 100 µM | EKVX > 100 µM | HCT-116 > 100 µM | HL-60 > 100 µM | HOP-62 > 100 µM | HOP-92 > 100 µM | HT-29 > 100 µM | Hs-578T > 100 µM | IGROV-1 > 100 µM | K562 > 100 µM | KM12 > 100 µM | LOX IMVI > 100 µM | M14 > 100 µM | MCF7 > 100 µM | MDA-MB-231 > 100 µM | MDA-MB-435 > 100 µM | MDA-N > 100 µM | MOLT-4 > 100 µM | Malme-3M 72.8 µM | NCI-H226 > 100 µM | NCI-H460 > 100 µM | NCI-H522 > 100 µM | NCI/ADR-RES > 100 µM | OVCAR-3 > 100 µM | OVCAR-4 > 100 µM | OVCAR-5 > 100 µM | OVCAR-8 > 100 µM | PC-3 > 100 µM | RPMI-8226 > 100 µM | SF-268 > 100 µM | SF-295 > 100 µM | SF-539 > 100 µM | SK-MEL-28 > 100 µM | SK-MEL-2 > 100 µM | SK-OV-3 > 100 µM | SN12C > 100 µM | SNB-19 > 100 µM | SR > 100 µM | SW-620 > 100 µM | TK-10 > 100 µM | U-251 > 100 µM | UACC-257 > 100 µM | UACC-62 > 100 µM | UO-31 > 100 µM
> 100 µM: HCT-15

Cc1ccc(S(=O)(=O)NC(CCC(=O)NNc2ccccc2)C(=O)NNc2ccccc2)cc1 (stereo not given)
15.4 µM: HCT-15
inactive: 786-0 > 100 µM | A498 > 100 µM | A549 15.6 µM | ACHN 2.13 µM | BT-549 > 100 µM | CAKI-1 > 100 µM | CCRF-CEM 51.4 µM | COLO 205 13.4 µM | EKVX > 100 µM | HCT-116 30.7 µM | HL-60 > 100 µM | HOP-62 > 100 µM | HOP-92 > 100 µM | HT-29 13.2 µM | Hs-578T 64.1 µM | IGROV-1 91 µM | K562 85.9 µM | KM12 2.84 µM | LOX IMVI > 100 µM | M14 9.53 µM | MCF7 23.1 µM | MDA-MB-231 > 100 µM | MDA-MB-435 > 100 µM | MDA-N 17.2 µM | MOLT-4 3.85 µM | Malme-3M 31.7 µM | NCI-H226 > 100 µM | NCI-H23 61.4 µM | NCI-H460 16.8 µM | NCI-H522 > 100 µM | NCI/ADR-RES > 100 µM | OVCAR-3 54.6 µM | OVCAR-4 25.8 µM | OVCAR-5 46.8 µM | OVCAR-8 6.43 µM | PC-3 4.14 µM | RPMI-8226 5.58 µM | RXF 393 > 100 µM | SF-268 46.8 µM | SF-295 10.4 µM | SF-539 17.5 µM | SK-MEL-2 13.5 µM | SK-MEL-5 98.4 µM | SK-OV-3 > 100 µM | SNB-19 > 100 µM | SNB-75 > 100 µM | SR 18.9 µM | SW-620 6.65 µM | T47D 5.47 µM | TK-10 1.95 µM | U-251 3.08 µM | UACC-257 15.1 µM | UACC-62 2.87 µM | UO-31 6.1 µM

CC(C)(C)N/N=C(\C(=O)NC1=C(Cl)C(=O)c2ccccc2C1=O)C1C=CCS1(=O)=O (stereo not given)
inactive: 786-0 22.4 µM | A498 21.2 µM | A549 16.9 µM | ACHN 16.1 µM | BT-549 12.4 µM | CAKI-1 18.4 µM | CCRF-CEM > 100 µM | COLO 205 16.6 µM | DU-145 11.1 µM | EKVX 16.5 µM | HCC 2998 36.1 µM | HCT-116 15.5 µM | HL-60 > 100 µM | HOP-92 14.1 µM | HT-29 14.4 µM | Hs-578T 19.5 µM | IGROV-1 10 µM | K562 > 100 µM | KM12 16 µM | LOX IMVI 7.98 µM | M14 11.5 µM | MCF7 13.1 µM | MDA-MB-231 14.6 µM | MDA-N 2.44 µM | MOLT-4 66.7 µM | Malme-3M 2.27 µM | NCI-H226 12.6 µM | NCI-H23 8.15 µM | NCI-H460 6.84 µM | NCI-H522 12.5 µM | NCI/ADR-RES 22 µM | OVCAR-3 2.65 µM | OVCAR-4 16.4 µM | OVCAR-5 21.2 µM | OVCAR-8 19.8 µM | PC-3 18.1 µM | RPMI-8226 > 100 µM | SF-268 21.9 µM | SF-295 12.6 µM | SF-539 23.1 µM | SK-MEL-28 > 100 µM | SK-MEL-2 11.2 µM | SK-OV-3 > 100 µM | SN12C 15.1 µM | SNB-19 > 100 µM | SNB-75 11.1 µM | SW-620 > 100 µM | T47D 19.5 µM | TK-10 38.9 µM | U-251 > 100 µM | UACC-257 13.6 µM | UACC-62 3.3 µM | UO-31 16.8 µM
7.06 µM: HCT-15
